Experimental data published in patent publication US20060135796A1, “Antiangiogenic agents” (priority 2000, published 2006).
Where two headings read alike, the source gives them in different places.

Columns and labels:
[1] = system: MDA-MB-231 human breast carcinoma cells; assay: MDA-MB-231 in vitro cellular proliferation inhibition (BrdU); format: cell-based; details: for fold less activity than 2-methoxyestradiol: MDA-MB-231 tumor cell line, compared to 2-methoxyestradiol; for antiproliferative activity in MDA-MB-231 cells, in words: breast tumor MDA-MB-231 cells
Description: MDA-MB-231 In Vitro Cellular Proliferation Inhibition
MDA-MB-231 Cells and Culture Conditions
MDA-MB-231 human breast carcinoma cells were grown in DMEM containing 10% FCS (Hyclone Laboratories, Logan Utah) and supplemented with 2 mM L-Glutamine, 100 units/ml penicillin, 100 μg/ml streptomycin (Irvine Scientific, Santa Anna, Calif.).
MDA-MB-231 cells were plated at 5000 cells/ml in 96 well plates. After allowing the cells to attach overnight, the appropriate fresh media were applied containing differing concentrations of 2-ME2 or derivatives thereof, as described below. Drug was dissolved in DMSO (Sigma, St. Louis, Mo.) and added to the wells in a volume of 200 μl. Cells were incubated for two days at 37° C.; at 32 h BrdU was added. BrdU cell proliferation assay (a nucleotide analogue with a fluorescein tag that is incorporated into DNA) was performed as described by the manufacturer (Roche). Each condition was prepared in triplicate and the experiments were carried out a minimum of two times. Results are presented and means ±SE.
(§1) In order to assess the biological activity of modifications at position 16, the anti-proliferative activity of these analogs was evaluated on human umbilical vein endothelial cells (HUVEC) and breast carcinoma cell line, MDA-MB-231 as models for the anti-angiogenic and anti-tumor activity, respectively.

HUVEC cells = assay: HUVEC in vitro cellular proliferation inhibition (BrdU); format: cell-based, human; details: for antiproliferative activity in HUVEC cells, in words: inhibition of HUVEC / endothelial cell proliferation in vitro
Description: HUVAC In Vitro Cellular Proliferation Inhibition
HUVAC Cells and Culture Conditions
HUVAC Cells were Grown in EGM (Clonetics)
HUVEC cells were plated at 5000 cells/ml in 96-well plates. After allowing the cells to attach overnight, the cells were washed with PBS and incubated in the absence of growth factor for 24 h (EBM, 2% FCS, Clonetics). Cells were treated with increasing concentrations of drug in EBM containing 2% FCS and 10 ng.ml bFGF for 48 h at 37° C. Drug preparation, volumes added and BrdU proliferation assay were performed as indicated above.
as §1

[2] = system: estrogen dependant MCF-7 cells; assay: MCF7 proliferation index (estrogenic activity); format: cell-based; details: measure of estrogenic activity
From the text: All of these analogs have the capacity to from a hydrogen bond with the hydroxy group at position 3 and this may be the reason for their relatively low estrogenic character compared to estradiol. Both the 2-methylhydroxy and 2-formyl derivatives had good antiproliferative activity (IC50<10 microM) in HUVEC cells, whereas the 2-acetyl had poor activity in the same assay.

[3] = system: chick embryo chorioallantoic membrane; assay: chick embryo chorioallantoic membrane (CAM) assay; format: in vivo; design: dose or concentration left out as unconfirmed; details: methylcellulose disc on CAM, after 48 hours
Description: Anti-proliferative activity is evaluated in situ by testing the ability of an improved estradiol derivative to inhibit the proliferation of new blood vessel cells (angiogenesis). A suitable assay is the chick embryo chorioallantoic membrane (CAM) assay described by Crum et al. Science 230:1375 (1985). See also, U.S. Pat. No. 5,001,116, hereby incorporated by reference, which describes the CAM assay. Briefly, fertilized chick embryos are removed from their shell on day 3 or 4, and a methylcellulose disc containing the drug is implanted on the chorioallantoic membrane. The embryos are examined 48 hours later and, if a clear avascular zone appears around the methylcellulose disc, the diameter of that zone. is measured.

[4] = Table 2, 2-methoxyestradiol modified at position 16, two days, read-out: MDA-MB-231 IC50
[5] = Table 2, 2-methoxyestradiol modified at position 16, 48 h, bFGF, read-out: HUVEC IC50
[6] = Table 1, 2-modified estradiol derivatives, read-out: MDA-MB-231 (IC50 μM)
[7] = Table 1, 2-modified estradiol derivatives, read-out: HUVEC (IC50 μM)
[8] = text statement b78, read-out: antiproliferative activity IC50 in HUVEC cells

Row | Compound | IC50 [1, 4] [µM] | IC50 (HUVEC cells; [5]) [µM] | MCF7 Proliferation Index [2] | further results
1 | 16β-isobutyl-2-methoxyestradiol | 40 | 7.5 |  | fold difference between tumor cell and endothelial cell antiproliferative activity (selectivity) ([1]; MDA-MB-231 versus HUVEC): 5 fold
2 | CCC1C[C@H]2[C@@H]3CCc4cc(O)c(OC)cc4[C@H]3CC[C@]2(C)[C@H]1O (mixture of isomers) [ethyl (—CH2CH3), Racemic 16-ethyl-2-methoxyestradiol] | 3 | 2 |  | fold less activity than 2-methoxyestradiol [1]: ~3 fold; antiproliferative activity in HUVEC cells, in words (HUVEC cells): about equipotent to 2-methoxyestradiol
3 | C[C@]12CC[C@@H]3c4cc(CO)c(O)cc4CC[C@H]3[C@@H]1CC[C@@H]2O [2-methyl hydroxy-E2] |  |  | 7.4 | IC50 [1, 6]: > 25 µM; antiproliferative activity in MDA-MB-231 cells, in words [1]: inactive; IC50 (HUVEC cells; [7]): 10 µM; IC50 (HUVEC cells; [8]): < 10 µM
4 | COc1cc2c(cc1O)CC[C@@H]1[C@@H]2CC[C@]2(C)[C@@H](O)[C@@H](CN(C)C)C[C@@H]12 [16β-methyl(dimethylamine)-2-methoxyestradiol] | 22 | 9 |  | 
5 | CC(=O)c1cc2c(cc1O)CC[C@@H]1[C@@H]2CC[C@]2(C)[C@@H](O)CC[C@@H]12 [Example 2-acetyl-E2] |  |  | 4.4 | IC50 [1, 6]: 9 µM; antiproliferative activity in MDA-MB-231 cells, in words [1]: good activity; IC50 (HUVEC cells; [7]): 18 µM; antiproliferative activity in HUVEC cells, in words (HUVEC cells): poor activity
6 | CC12CCC3c4cc(C=O)c(O)cc4CCC3C1CCC2O (stereo not drawn) [Example 2-formyl-E2] |  |  | 5.4 | IC50 [1, 6]: > 25 µM; antiproliferative activity in MDA-MB-231 cells, in words [1]: inactive; IC50 (HUVEC cells; [7]): 8 µM; IC50 (HUVEC cells; [8]): < 10 µM
7 | COc1cc2c(cc1O)CC[C@@H]1[C@@H]2CC[C@]2(C)[C@@H](O)CC[C@@H]12 [Example 2ME2, 2-Methoxyestradiol, reference compound] | 0.9 |  | 4.4 | IC50 [1, 6]: 0.9 µM; inhibition of cell mitosis and growth of new blood vessels [3]: inhibit cell mitosis and the growth of new blood vessels
8 | C[C@]12CC[C@@H]3c4ccc(O)cc4CC[C@H]3[C@@H]1CC[C@@H]2O [Example E2, estradiol, reference compound] |  |  | 13.1 | 
9 | COc1cc2c(cc1O)CC[C@@H]1[C@@H]2CC[C@]2(C)[C@@H](O)[C@@H](CO)C[C@@H]12 [methanol (—CH2OH), 16β-methanol-2-methoxyestradiol] | 22 | 15 |  | 
10 | COc1cc2c(cc1O)CC[C@@H]1[C@@H]2CC[C@]2(C)[C@@H](O)[C@H](C)C[C@@H]12 [methyl (—CH3), 16α-methyl-2methoxyestradiol] | < 0.5 | < 0.5 |  | antiproliferative activity in MDA-MB-231 cells, in words [1]: better activity than 2-methoxyestradiol; antiproliferative activity in HUVEC cells, in words (HUVEC cells): greater activity than 2-methoxyestradiol
11 | COc1cc2c(cc1O)CC[C@@H]1[C@@H]2CC[C@]2(C)[C@@H](O)[C@@H](C)C[C@@H]12 [methyl, 16β-methyl-2methoxyestradiol] | 5 | 1.3 |  | fold less activity than 2-methoxyestradiol [1]: about 5 fold
12 | CCCC[C@H]1C[C@H]2[C@@H]3CCc4cc(O)c(OC)cc4[C@H]3CC[C@]2(C)[C@H]1O [n-butyl, 16β-n-butyl-2-methoxyestradiol] | 39 | 9 |  | 
13 | CCC[C@@H]1C[C@H]2[C@@H]3CCc4cc(O)c(OC)cc4[C@H]3CC[C@]2(C)[C@H]1O [n-propyl (—CH2CH2CH3), 16α-n-propyl-2-methoxyestradiol] | > 50 | 6 |  | antiproliferative activity in HUVEC cells, in words (HUVEC cells): good activity
14 | CCC[C@H]1C[C@H]2[C@@H]3CCc4cc(O)c(OC)cc4[C@H]3CC[C@]2(C)[C@H]1O [n-propyl, 16β-n-propyl-2-methoxyestradiol] | 36 | 9 |  | 
